Measured values as given in US20130131062A1, “PYRIDAZINONES AND FURAN-CONTAINING COMPOUNDS” (priority 2006, published 2013).
Where two headings read alike, the source gives them in different places.

Columns and labels:
Type in all cases: cell-based, human
[1] = tested on: H3255; assay: Non Small Cell Lung Cancer Proliferation Assay (Alamar Blue); settings: Homo sapiens, NCI-H3255, dose response 10 μM to 5 nM
Method: (§1) These cells have a doubling time of 1-2 days. All cell types are adherent and grow in colonies. The cells should be kept at a density between 50,000 cells/mL-500,000 cells/mL to provide for optimum growth and adequate nutrition. The cell line should be maintained at 37° C. in a humidified atmosphere with 5% CO2 in a sterile cell culture incubator.
(§2) To perform the assay, the Non Small Cell Lung Cancer lines are diluted in media and plated into 384 well microplates at a final density of 250 cells in 45 μL.
(§3) High Controls for this assay are made by treating Non Small Cell Lung Cancer cells with 5 ul of 10% DMSO. [Final concentration in this assay is 1% DMSO].
(§4) Important Note: All compounds for testing in this assay should be done at the final concentration of 1% DMSO.
(§5) After addition, the cells are placed in cell culture incubator at 37° C. for 48 hours for complete treatment.
(§6) After drug treatment, cytotoxicity is measured by Alamar Blue reduction.
(§7) The cells are incubated for 48 hours at 37° C. to complete the Alamar Blue reduction.
(§8) The final step in the assay is to measure the amount of Alamar Blue reduction. […] The Alamar Blue fluorescence is measured at an excitation of 530 nm and emission of 590 nm.
(§9) For the NSCLC project, the cell based assay was screened against a small molecule library of approximately 200,000 compounds. The compound library is stored in our automated robotic freezer (Biophile) at −20° C. in 100% DMSO. Compound freeze and thaw cycles are kept to a minimum. […] This assay was performed on a fully automated linear track robotic platform (CRS F3 Robot System, Thermo Electron Corp., Ontario, Canada) utilizing several integrated peripherals for plate handling, liquid dispensing, and readout detection. […] The microplates are then placed at 37° C. for 48 hours to complete treatment of cells with compounds. Next, 5 ul of alamar blue was added using a liquid dispenser (FlexDrop Precision Dispenser, Perkin Elmer, Mass., USA) and incubated for 48 hours at 37° C. The alamar blue prompt fluorescence was measured on Victor V (Victor^3 V, Perkin Elmer, Mass., USA) and output data files were loaded into ORIS (Oncology Research Informatics System, MSKCC, NY, USA), a screening data acquisition and analysis platform.

[2] = tested on: H2030; assay: as above; settings: Homo sapiens, NCI-H2030, dose response 10 μM to 5 nM
Method: as §1, §2, §3, §4, §5, §6, §7, §8, §9

[3] = tested on: 15 non small cell lung cancer lines representing various EGFR and KRAS mutations; assay: Dose response studies against 15 NSCLC lines (alamar blue); settings: 12 point doubling dilution 10 uM to 5 nM, alamar blue
Method: Dose response studies against 34 compounds from the pyridazinone and phenylfuran-carboxamide class were conducted. […] In addition, Tarceva was included in these dose response studies.
The dose response studies were done with the following standard procedure. First, the cells were counted and dispensed at 250 cells/well into 384-well microplates with compound. The cells were incubated for 48 hours at 37 C to complete treatment, and then alamar blue was added for an additional 48 hours. Finally, alamar blue reduction was measured and the data was loaded into ORIS, our data screening acquisition platform.

[4] = tested on: H1975; assay: Non Small Cell Lung Cancer Proliferation Assay (Alamar Blue); settings: Homo sapiens, NCI-H1975, dose response 10 μM to 5 nM
Method: as §1, with “Non Small Cell Lung Cancer cell lines are grown and maintained in Corning 175 cm2 flasks in RPMI 1640 media supplemented with 10% FBS, 1% antibiotic solution, 1% additional glutamine and pyruvate. These” for “These”
(§10) To perform the assay, the Non Small Cell Lung Cancer lines are diluted in media and plated into 384 well microplates at a final density of 250 cells in 45 μL. To ensure consistency and minimal pipetting error, the cells are plated using the Multidrop 384 with the following settings: Rocker Switch set at 384, Volume 45 and Column 24.
(§11) Low Controls for this assay are made by treating Non Small Cell Lung Cancer cells with 5 ul of staurosporine at 250 uM in 10% DMSO and 1% SDS. [Final concentration in this assay is 25 uM staurosporine in 1% DMSO and 0.1% SDS.]
as §3
(§12) The remaining wells of the 384 microplate may be treated with different compounds depending on the study. Important Note: All compounds for testing in this assay should be done at the final concentration of 1% DMSO.
as §5
(§13) After drug treatment, cytotoxicity is measured by Alamar Blue reduction. 5 μL of Alamar Blue is added to the 384 microplates using the Flexdrop.
as §7, §8
(§14) For the NSCLC project, the cell based assay was screened against a small molecule library of approximately 200,000 compounds. The compound library is stored in our automated robotic freezer (Biophile) at −20° C. in 100% DMSO. Compound freeze and thaw cycles are kept to a minimum. Compounds for use are diluted into the appropriate concentration and plated into 384 well microplates using our custom built low volume 384-well head tool (TPS 384, Apricot Designs Inc., CA, USA). This assay was performed on a fully automated linear track robotic platform (CRS F3 Robot System, Thermo Electron Corp., Ontario, Canada) utilizing several integrated peripherals for plate handling, liquid dispensing, and readout detection. First, non-small cell lung cancer cell lines are dispensed into 384 well microplates (Corning #3712 Tissue Culture Treated Plate, Corning, N.Y., USA) with 5 μL of test compounds at 100 uM in 10% DMSO for screening studies or 1 mM in 10% DMSO to 50 nM in 10% DMSO for dose response studies. The microplates are then placed at 37° C. for 48 hours to complete treatment of cells with compounds. Next, 5 ul of alamar blue was added using a liquid dispenser (FlexDrop Precision Dispenser, Perkin Elmer, Mass., USA) and incubated for 48 hours at 37° C. The alamar blue prompt fluorescence was measured on Victor V (Victor^3 V, Perkin Elmer, Mass., USA) and output data files were loaded into ORIS (Oncology Research Informatics System, MSKCC, NY, USA), a screening data acquisition and analysis platform.

[5] = tested on: H1650; assay: as above; settings: Homo sapiens, NCI-H1650, dose response 10 μM to 5 nM
Method: as §1, with “Non Small Cell Lung Cancer cell lines are grown and maintained in Corning 175 cm2 flasks in RPMI 1640 media supplemented with 10% FBS, 1% antibiotic solution, 1% additional glutamine and pyruvate. These” for “These”
as §10, §11, §3, §12, §5, §13, §7, §8, §14

## Cc1ccccc1-n1ncc(Cl)c(Cl)c1=O [compound 257017]
[1]
  IC50: 2950 nM
[2]
  IC50: 1080 nM
[3]; HPL1D (SV40-immortalized human lung epithelian cells, EGFR WT, KRAS WT), read-out: IC50 HPL1D
  IC50: 1140 nM
[3]; Homo sapiens, NCI-H358, H358 (EGFR WT, KRAS G12C), read-out: IC50 H358
  IC50: 1700 nM
[3]; Homo sapiens, NCI-H460, H460 (EGFR WT, KRAS Q61H), read-out: IC50 H460
  IC50: 3680 nM
[3]; Homo sapiens, NCI-H820, H820 (EGFR T790M/DelE746-A750, KRAS WT), read-out: IC50 H820
  IC50: 470 nM
[3]; Homo sapiens, NCI-H1650, H1650 (EGFR DelE746-A750, KRAS WT), read-out: IC50 H1650
  IC50: 1670 nM
[3]; Homo sapiens, NCI-H1734, H1734 (EGFR WT, KRAS G13C), read-out: IC50 H1734
  IC50: 3200 nM
[3]; Homo sapiens, NCI-H1975, H1975 (KRAS WT), read-out: IC50 H1975
  IC50: 760 nM
[3]; Homo sapiens, NCI-H2030, H2030 (EGFR WT, KRAS G12C), read-out: IC50 H2030
  IC50: 1380 nM
[3]; Homo sapiens, NCI-H2122, H2122 (EGFR WT, KRAS G12C), read-out: IC50 H2122
  IC50: 2160 nM
[3]; Homo sapiens, NCI-H2444, H2444 (EGFR WT, KRAS G12V), read-out: IC50 H2444
  IC50: 1050 nM
[3]; Homo sapiens, NCI-H3255, H3255 (EGFR L858R, KRAS WT), read-out: IC50 H3255
  IC50: 3160 nM
[3]; Homo sapiens, A549 (EGFR WT, KRAS G12S), read-out: IC50 A549
  IC50: 2130 nM
[3]; Homo sapiens, H23 (EGFR WT, KRAS G12C), read-out: IC50 H23
  IC50: 310 nM
[3]; Homo sapiens, H1118 (EGFR L858R, KRAS WT), read-out: IC50 H1118
  IC50: 830 nM
[3]; Homo sapiens, PC9 (EGFR DclE746-A750, KRAS WT), read-out: IC50 PC9
  IC50: 2000 nM
[4]
  IC50: 470 nM
[5]
  IC50: 2740 nM
